Data published in the OPERA property sets (Mansouri et al. 2018).

Structure (SMILES) | log10 OH rate constant (cm³/molecule/s) (25.0 °C) | log10 OH rate constant (cm³/molecule/s) (24.0 °C)
CC(C)CCO[N+](=O)[O-] | -11.7 | 
COC | -11.5 | 
CCCOCCO | -10.7 | 
Cc1cccc(C)c1O | -10.2 | 
C=CCl | -11.2 | 
Cc1ccc(C)c(O)c1 | -10.1 | 
C=O | -11 | 
C=CCCCOC(C)=O | -10.4 | 
ClCC(Cl)Cl | -12.7 | 
CCCCCCCCCCCCCCC | -10.7 | 
CSSC |  | -9.64
FC(Cl)C(F)(F)F (configuration not stated) | -14 | 
CC(Cl)Cl | -12.6 | 
COP(=O)(OC)OC | -11.1 | 
C1=CC2CCC1CC2 | -10.4 | 
Fc1c(F)c(F)c(F)c(F)c1F | -12.8 | 
FC(F)(Cl)CCl | -13.8 | 
ClCC(Cl)(Cl)Cl | -13.7 | 
Cc1cccc(O)c1C | -10.1 | 
O=[N+]([O-])OC1CCCCC1 | -11.5 | 
CCCCCCC(C)=O | -11 | 
CCCOCCC | -10.7 | 
C=CC#N | -11.4 | 
C=CCC(=C)C | -10.1 | 
CCCOC(=O)CCC | -11.1 | 

Structure (SMILES) | log10 OH rate constant (cm³/molecule/s) (25.0 °C) | log10 OH rate constant (cm³/molecule/s) (24.0 °C)
COCC(Cl)Cl | -11.6 | 
Clc1ccccc1-c1ccccc1 | -11.5 | 
Cc1ccc(O)c(C)c1 | -10.1 | 
CC=CCC | -10.2 | 
COP(=O)(OC)SC | -11 | 
CCCCCCO | -10.9 | 
CCCC(=O)OCC | -11.3 | 
CCCO | -11.3 | 
CC(C)C(C)C(C)C | -11.2 | 
C#CCCCC | -10.9 | 
C=CCCC(=C)C | -10 | 
CCCCOCCCC | -10.5 | 
CC(C)O | -11.3 | 
FC(F)F | -15.5 | 
C1CC1 | -13.1 | 
CCCC[N+](=O)[O-] | -11.8 | 
Clc1ccc(Cl)c(Cl)c1 | -12.3 | 
COP(=O)(SC)SC | -11 | 
C=C(C)CCC | -10.2 | 
CCCCCO | -11 | 
CCC=C(C)C | -10.1 | 
Nc1ccccc1 | -9.95 | 
CCCOC=O | -11.6 | 
CCOC(=O)CC | -11.7 | 
CCC1CO1 (configuration not stated) | -11.7 | 

Structure (SMILES) | log10 OH rate constant (cm³/molecule/s) (25.0 °C) | log10 OH rate constant (cm³/molecule/s) (24.0 °C)
FC(F)(F)C(Cl)Cl | -13.4 | 
C=CC(=O)OCC | -10.8 | 
CC(F)(F)C(F)(Cl)Cl | -14.6 | 
CC1=CCC2CC1C2(C)C (configuration not stated) | -10.3 | 
CCCCOC(C)=O | -11.3 | 
FCC(F)(F)F | -14.3 | 
C1=CCCCCC1 | -10.1 | 
CCCCCO[N+](=O)[O-] | -11.5 | 
CCCCCCCCCCC | -10.9 | 
C/C=C/C(C)C | -10.2 | 
CCCOC(=O)CC | -11.4 | 
C[N+](=O)[O-] | -12.9 | 
O=CCl | -12.5 | 
FC1C(F)(F)OC1(F)F | -14.6 | 
FCC(F)F | -13.7 | 
CCCCCOC(C)=O | -11.1 | 
CCC(C)=C(C)C | -9.99 | 
CC(C)(C)CO | -11.3 | 
ClCCCl | -12.6 | 
CC(F)(F)Cl | -14.5 | 
CCOC(C)(C)C | -11.1 | 
C=C(C)C(=O)OCCOCC | -10.6 | 
Clc1cccc(-c2ccccc2)c1 | -11.3 | 
CCCCO | -11.1 | 
Cl/C=C\Cl | -11.6 | 

Structure (SMILES) | log10 OH rate constant (cm³/molecule/s) (25.0 °C) | log10 OH rate constant (cm³/molecule/s) (24.0 °C)
CCC#N | -12.7 | 
COC(=O)C(F)(F)F | -13.3 | 
C=CC | -10.6 | 
FC(F)OCC(F)(F)F | -13.9 | 
Cc1ccc(O)cc1C | -10.1 | 
COCC(F)(F)F | -12.2 | 
CCCCOCC | -10.7 | 
CCOCCOC(=O)C(C)C | -10.9 | 
COC=O | -12.6 | 
C=CC/C=C/C | -10 | 
CC(C)(C)OC=O | -12.1 | 
CC(=O)Cl | -14 | 
COCCBr | -11.2 | 
COCCCl | -11.3 | 
Cl/C=C\CCl | -11 | 
O=C1CCCC1 | -11.5 | 
C=CCC | -10.5 | 
CC(Cl)(Cl)Cl | -14 | 
CO | -12 | 
Cc1cc(C)cc(O)c1 | -9.95 | 
CC(C)(C)CO[N+](=O)[O-] | -12.1 | 
CC(C)OC(C)C | -11 | 
C1CC[C@H]2CCC[C@@H]2C1 (racemic) | -10.8 | 
C=CCCC | -10.5 | 
CCCCCOCCCCC | -10.5 | 

Structure (SMILES) | log10 OH rate constant (cm³/molecule/s) (25.0 °C) | log10 OH rate constant (cm³/molecule/s) (24.0 °C)
C/C=C\C | -10.2 | 
CCc1ccccc1 | -11.1 | 
CCCCCCCO | -10.9 | 
CCCCOC | -10.8 | 
CC(C)=O | -12.7 | 
COC(C)(C)C | -11.5 | 
FC(C(F)C(F)(F)C(F)(F)F)C(F)(F)F (configuration not stated) | -14.5 | 
CCOCCO | -10.8 | 
C=C(Cl)Cl | -11 | 
ClCC(Br)CBr (configuration not stated) | -12.4 | 
COC(F)(F)F | -13.7 | 
FC(F)OC(F)(F)F | -14.5 | 
CCCC(=O)OC | -11.5 | 
CCCC(C)C | -11.3 | 
C1=CCCC1 | -10.2 | 
CCOC=CC(=O)OCC | -10.5 | 
CC(=O)OC(C)(C)C | -12.3 | 
CCCCOC=O | -11.5 | 
C=C(C)[C@H]1CC=C(C)CC1 | -9.77 | 
CCC[N+](=O)[O-] | -12.4 | 
CC1=CCC2C(C1)C2(C)C (configuration not stated) | -10.1 | 
CCOP(=O)(OCC)OCC | -10.3 | 
